Measured values reported in PMC2905153 (Cell calcium, 2009).

Target: CRACM1/Orai1 (Homo sapiens, UniProt Q96D31)
Assay type: cell-based

Chain of CRACM1/Orai1 (Q96D31 whole entry): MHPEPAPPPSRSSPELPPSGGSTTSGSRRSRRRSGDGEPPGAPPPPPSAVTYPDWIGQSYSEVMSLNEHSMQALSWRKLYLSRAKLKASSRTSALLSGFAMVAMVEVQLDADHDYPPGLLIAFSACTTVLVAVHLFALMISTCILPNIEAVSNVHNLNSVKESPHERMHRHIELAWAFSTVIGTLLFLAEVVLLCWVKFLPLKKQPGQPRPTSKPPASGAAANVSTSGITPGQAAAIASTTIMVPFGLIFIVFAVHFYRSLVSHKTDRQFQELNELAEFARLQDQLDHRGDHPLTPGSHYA
Chain of CRACM1/Orai1 (Q13586 23-685 partner): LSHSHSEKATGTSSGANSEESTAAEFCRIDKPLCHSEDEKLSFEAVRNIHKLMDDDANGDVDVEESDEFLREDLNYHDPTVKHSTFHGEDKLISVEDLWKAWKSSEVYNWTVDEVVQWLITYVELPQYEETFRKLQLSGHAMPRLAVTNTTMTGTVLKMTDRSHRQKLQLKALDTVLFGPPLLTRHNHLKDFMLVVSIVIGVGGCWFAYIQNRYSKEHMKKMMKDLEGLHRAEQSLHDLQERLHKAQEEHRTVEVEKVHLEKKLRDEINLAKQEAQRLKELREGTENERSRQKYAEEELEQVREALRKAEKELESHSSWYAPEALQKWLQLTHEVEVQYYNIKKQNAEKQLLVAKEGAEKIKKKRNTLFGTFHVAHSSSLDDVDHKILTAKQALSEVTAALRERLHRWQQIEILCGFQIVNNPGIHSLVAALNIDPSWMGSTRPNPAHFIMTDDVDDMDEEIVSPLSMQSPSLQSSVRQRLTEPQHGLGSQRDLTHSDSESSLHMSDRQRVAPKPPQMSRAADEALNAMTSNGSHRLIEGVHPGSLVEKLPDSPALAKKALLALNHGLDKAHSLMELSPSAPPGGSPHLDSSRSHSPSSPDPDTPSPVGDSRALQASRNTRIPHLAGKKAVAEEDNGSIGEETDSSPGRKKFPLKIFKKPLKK

Substance: DPB162-AE
- IC50: 86 ± 21 nM

Substance: DPB163-AE
- IC50: 170 ± 68 nM
